In this test the test system is Swiss mice, Sarcoma 180 sc, mean tumor weight T/C. The experiment in a line: NCI In Vivo Anticancer Drug Screen. Data for tumor model Sarcoma 180 (subcutaneous) in Swiss mice. Particulars: endpoint: mean tumor weight, higher = larger tumour. A digest of the protocol:
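Antitumor activity is assessed in mice with transplantable tumors. Treated (T) and vehicle control (C) groups are compared on survival or tumor size.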

Where [1] appears, read: dose: 3.0 mg/kg/injection, schedule: Q#A X014 (ip), vehicle: carboxymethylcellulose (CMC).
Setting [2] is: dose: 6.0 mg/kg/injection, schedule: Q#A X014 (ip), vehicle: carboxymethylcellulose (CMC).

“And” between values parts separate entries of the source, which are not always exact repeats. Equal values may be shown once.

As for `CCNc1nncs1`, the T/C (in general, the result in the treated group divided by that in the control group, in per cent) was 59 % of control (dose: 13.7 mg/kg/injection, schedule: Q01DX007 (ip), vehicle: carboxymethylcellulose (CMC)); 97 % of control and 108 % of control (dose: 16.37 mg/kg/injection, schedule: Q01DX007 (ip), vehicle: carboxymethylcellulose (CMC)); 58 % of control (dose: 27.5 mg/kg/injection, schedule: Q01DX007 (ip), vehicle: carboxymethylcellulose (CMC)); 75 % of control and 98 % of control (dose: 32.75 mg/kg/injection, schedule: Q01DX007 (ip), vehicle: carboxymethylcellulose (CMC)); 47 % of control (dose: 55.0 mg/kg/injection, schedule: Q01DX007 (ip), vehicle: carboxymethylcellulose (CMC)); 41 % of control (dose: 110.0 mg/kg/injection, schedule: Q01DX007 (ip), vehicle: carboxymethylcellulose (CMC)). The T/C (dose: 131.0 mg/kg/injection, schedule: Q01DX007 (ip), vehicle: carboxymethylcellulose (CMC)) is 46 % of control and 71 % of control.
For the compound `CN(N=O)C(N)=O`, the T/C is, setting by setting: (dose: 1.4 mg/kg/injection, schedule: Q#A X014 (ip), vehicle: carboxymethylcellulose (CMC)) 45 % of control; (dose: 1.5 mg/kg/injection, schedule: Q#A X014 (ip), vehicle: carboxymethylcellulose (CMC)) 63 % of control; (dose: 2.81 mg/kg/injection, schedule: Q#A X014 (ip), vehicle: carboxymethylcellulose (CMC)) 53 % of control; under setting [1], 73 % of control; (dose: 5.62 mg/kg/injection, schedule: Q#A X014 (ip), vehicle: carboxymethylcellulose (CMC)) 27 % of control; under setting [2], 41 % of control. Moreover, the T/C runs as follows: (dose: 7.5 mg/kg/injection, schedule: Q01DX007 (ip), vehicle: carboxymethylcellulose (CMC)) 67 % of control; (dose: 9.6 mg/kg/injection, schedule: Q01DX007 (ip), vehicle: carboxymethylcellulose (CMC)) 65 % of control; (dose: 11.25 mg/kg/injection, schedule: Q01DX007 (ip), vehicle: carboxymethylcellulose (CMC)) 73 % of control; (dose: 12.0 mg/kg/injection, schedule: Q01DX007 (ip), vehicle: carboxymethylcellulose (CMC)) 49 % of control; (dose: 12.0 mg/kg/injection, schedule: Q#A X014 (ip), vehicle: carboxymethylcellulose (CMC)) 35 % of control; (dose: 15.0 mg/kg/injection, schedule: Q01DX007 (ip), vehicle: carboxymethylcellulose (CMC)) 30 % of control. Moreover, the T/C by setting is: (dose: 16.0 mg/kg/injection, schedule: Q01DX007 (ip), vehicle: carboxymethylcellulose (CMC)) 51 % of control; (dose: 22.5 mg/kg/injection, schedule: Q01DX007 (ip), vehicle: carboxymethylcellulose (CMC)) 14 % of control; (dose: 24.0 mg/kg/injection, schedule: Q01DX007 (ip), vehicle: carboxymethylcellulose (CMC)) 31 % of control.
`S=c1nc[nH]c2nc[nH]c12`: the T/C by setting is: (dose: 3.25 mg/kg/injection, schedule: Q#A X014 (ip), vehicle: carboxymethylcellulose (CMC)) 62 % of control; (dose: 3.62 mg/kg/injection, schedule: Q#A X014 (ip), vehicle: carboxymethylcellulose (CMC)) 83 % of control; (dose: 6.5 mg/kg/injection, schedule: Q#A X014 (ip), vehicle: carboxymethylcellulose (CMC)) 61 % of control; (dose: 7.25 mg/kg/injection, schedule: Q#A X014 (ip), vehicle: carboxymethylcellulose (CMC)) 56 % of control; (dose: 7.5 mg/kg/injection, schedule: Q01DX007 (ip), vehicle: other) 102 % of control; (dose: 10.4 mg/kg/injection, schedule: Q01DX007 (ip), vehicle: carboxymethylcellulose (CMC)) 51 % of control. In addition, the T/C is, setting by setting: (dose: 13.0 mg/kg/injection, schedule: Q01DX007 (ip), vehicle: carboxymethylcellulose (CMC)) 66 % of control; (dose: 13.0 mg/kg/injection, schedule: Q#A X014 (ip), vehicle: carboxymethylcellulose (CMC)) 28 % of control; (dose: 14.5 mg/kg/injection, schedule: Q01DX007 (ip), vehicle: carboxymethylcellulose (CMC)) 73 % of control and 83 % of control; (dose: 14.5 mg/kg/injection, schedule: Q#A X014 (ip), vehicle: carboxymethylcellulose (CMC)) 48 % of control; (dose: 15.0 mg/kg/injection, schedule: Q01DX007 (ip), vehicle: other) 101 % of control; (dose: 15.0 mg/kg/injection, schedule: Q#A X014 (ip), vehicle: methylcellulose (MC)) 60 % of control. For the same compound, the T/C was 51 % of control (dose: 17.3 mg/kg/injection, schedule: Q01DX007 (ip), vehicle: carboxymethylcellulose (CMC)); 72 % of control (dose: 19.0 mg/kg/injection, schedule: Q01DX007 (ip), vehicle: carboxymethylcellulose (CMC)); 49 % of control (dose: 23.2 mg/kg/injection, schedule: Q01DX007 (ip), vehicle: carboxymethylcellulose (CMC)); 55 % of control (dose: 25.0 mg/kg/injection, schedule: Q#A X014 (ip), vehicle: methylcellulose (MC)); 36 % of control (dose: 26.0 mg/kg/injection, schedule: Q01DX007 (ip), vehicle: carboxymethylcellulose (CMC)); 32 % of control (dose: 26.0 mg/kg/injection, schedule: Q#A X014 (ip), vehicle: carboxymethylcellulose (CMC)). Moreover, the T/C runs as follows: (dose: 29.0 mg/kg/injection, schedule: Q#A X014 (ip), vehicle: carboxymethylcellulose (CMC)) 20 % of control; (dose: 30.0 mg/kg/injection, schedule: Q01DX007 (ip), vehicle: other) 78 % of control; (dose: 37.5 mg/kg/injection, schedule: Q#A X014 (ip), vehicle: methylcellulose (MC)) 34 % of control; (dose: 38.6 mg/kg/injection, schedule: Q01DX007 (ip), vehicle: carboxymethylcellulose (CMC)) 36 % of control; (dose: 43.5 mg/kg/injection, schedule: Q01DX007 (ip), vehicle: carboxymethylcellulose (CMC)) 27 % of control and 47 % of control; (dose: 44.0 mg/kg/injection, schedule: Q01DX007 (ip), vehicle: carboxymethylcellulose (CMC)) 49 % of control. Further, the T/C runs as follows: (dose: 50.0 mg/kg/injection, schedule: Q#A X014 (ip), vehicle: methylcellulose (MC)) 14 % of control; (dose: 58.0 mg/kg/injection, schedule: Q01DX007 (ip), vehicle: carboxymethylcellulose (CMC)) 14 % of control and 21 % of control and 28 % of control; (dose: 60.0 mg/kg/injection, schedule: Q01DX007 (ip), vehicle: other) 33 % of control and 47 % of control; (dose: 66.0 mg/kg/injection, schedule: Q01DX007 (ip), vehicle: carboxymethylcellulose (CMC)) 34 % of control; (dose: 100.0 mg/kg/injection, schedule: Q01DX007 (ip), vehicle: carboxymethylcellulose (CMC)) 24 % of control.
As to `CN(C)c1ccc(/C=C\c2ccnc3ccccc23)cc1`, the T/C was 123 % of control (dose: 12.5 mg/kg/injection, schedule: Q01DX007 (ip), vehicle: water); 118 % of control (dose: 16.0 mg/kg/injection, schedule: Q01DX007 (ip), vehicle: methylcellulose (MC)); 80 % of control (dose: 24.0 mg/kg/injection, schedule: Q01DX007 (ip), vehicle: methylcellulose (MC)); 114 % of control (dose: 25.0 mg/kg/injection, schedule: Q01DX007 (ip), vehicle: water); 66 % of control (dose: 36.0 mg/kg/injection, schedule: Q01DX007 (ip), vehicle: methylcellulose (MC)); 80 % of control (dose: 50.0 mg/kg/injection, schedule: Q01DX007 (ip), vehicle: water).
`CS(=O)(=O)OCCC(=O)N1CCN(C(=O)CCOS(C)(=O)=O)CC1`: the T/C was 92 % of control (dose: 12.5 mg/kg/injection, schedule: Q01DX007 (ip), vehicle: saline); 76 % of control and 100 % of control (dose: 25.0 mg/kg/injection, schedule: Q01DX007 (ip), vehicle: saline); 8 % of control and 23 % of control (dose: 67.0 mg/kg/injection, schedule: Q#A X014 (ip), vehicle: methylcellulose (MC)); 7 % of control (dose: 150.0 mg/kg/injection, schedule: Q#A X014 (ip), vehicle: methylcellulose (MC)).
With `CC1CN1P(=O)(Oc1ccccc1)N1CC1C` (stereo not given), the T/C is, setting by setting: (dose: 27.5 mg/kg/injection, schedule: Q#A X014 (ip), vehicle: saline) 60 % of control and 67 % of control and 84 % of control; (dose: 62.5 mg/kg/injection, schedule: Q#A X014 (ip), vehicle: saline) 13 % of control and 20 % of control.
For `CCOC(=O)c1c(C#N)c(Cl)nc(C)c1[N+](=O)[O-]`, the T/C is 64 % of control under setting [1] and 70 % of control under setting [2].

These data come from PubChem BioAssay AID342 (DTP/NCI, 2004).
